# Measurements published in PMC12767876, “Synthesis and evaluation of enantiomeric quinoline-2-carboxamides: positron emission tomography imaging agents for the translocator protein” (RSC Medicinal Chemistry, 2025).
# Where two headings read alike, the source gives them in different places.
# Key:
# TSPO [1] = target: T1, TSPO (Homo sapiens, UniProt P30536); test: [3H]PK11195 competition binding assay on homogenised human brain tissue (frontal cortex) from rs6971 genotyped HAB, MAB and LAB donors; details: for influence of rs6971 polymorphism on binding: HAB vs. LAB, unpaired t-test, p = 0.5273, n = 6 per genotype
# Procedure: All studies using human tissue were conducted and approved in accordance with the National Health Service Research Ethics Committee Southeast Scotland (NHS-RECSE, Edinburgh Brain and Tissue Bank, 16/ES/0084). Informed consents were obtained from human participants of this study. The Edinburgh Brain and Tissue code and BNN reference numbers for all new tissue samples used in this study are: SD022/13 (BBN_15222), SD038/13 (BBN_18391), SD037/14 (BBN_23395), SD051/14 (BBN_24340), SD012/15 (BBN_25055), SD032/16 (0.01.29084), SD027/12 (BBN_13410), SD038/12 (BBN_4176), SD006/14 (BBN_20593), SD008/14 (BBN_20592), SD020/14 (BBN_22611), SD011/15 (BBN_24781), SD023/12 (BBN_3785), SD029/13 (BBN_15809), SD036/13 (BBN_18392), SD046/13 (BBN_18407), SD034/14 (BBN_22628) and SD031/15 (001.26124). […] Binding was terminated with the addition of ice cold buffer before being immediately filtered over Whatman GF/B filter paper (Whatman, UK) pre-treated with 0.3% polyethylenimine (Sigma-Aldrich, USA) using a Brandel harvester (Brandel, USA). Filter paper was then removed, placed into Optiphase HiSafe 3 (2.5 mL) (Perkin Elmer, USA) and counted 48 h later on a Hidex 300 SL (Hidex, Finland). […] All binding assays were performed in triplicate. GraphPad Prism version 9 (GraphPad Software, USA) was used to fit all binding affinity curves. Curves were fitted using a one-site binding model.
# [2] = HPLC determination of partition coefficient (log P) using C18 column; format: physicochemical
# Source text: (§1) The selection of potential candidates as neurological imaging agents requires evaluation of key physicochemical properties. […] For agents that rely primarily on passive diffusion, the membrane partition coefficient is particularly critical. […] Taken together, these physicochemical properties and in vivo studies support the potential of LW223 as a neurological imaging agent. Although the R-enantiomer of LW223 was used to determine the physicochemical properties in this study, these values are expected to be representative of the S-enantiomer, which is consistent with observations for other enantiomeric pairs.[32] [table]
# [3] = HPLC determination of membrane permeability (Pm) and membrane partition coefficient (Km) using immobilised artificial membrane (IAM) column; format: physicochemical
# Source text: as §1
# TSPO [4] = target: T1, TSPO; design: method as in PMID 32859708; details: human brain (and heart) tissues, cited from earlier work
# human serum albumin = human serum albumin (Homo sapiens, UniProt P02768); test: HPLC determination of plasma protein binding using human serum albumin coated column; format: in vitro ADME; details: read-out: % PPB (plasma protein binding) (converted)
# Source text: as §1
# [5] = design: method as in PMID 32859708, PMID 37795635; details: murine brain; cited from earlier work
# T1 sequence (P30536 2-169): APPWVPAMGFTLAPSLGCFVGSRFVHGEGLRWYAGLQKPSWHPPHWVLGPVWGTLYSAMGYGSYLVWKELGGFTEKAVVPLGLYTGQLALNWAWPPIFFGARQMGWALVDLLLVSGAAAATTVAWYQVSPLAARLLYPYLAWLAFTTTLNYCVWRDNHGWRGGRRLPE
# Chain of human serum albumin (P02768 25-609): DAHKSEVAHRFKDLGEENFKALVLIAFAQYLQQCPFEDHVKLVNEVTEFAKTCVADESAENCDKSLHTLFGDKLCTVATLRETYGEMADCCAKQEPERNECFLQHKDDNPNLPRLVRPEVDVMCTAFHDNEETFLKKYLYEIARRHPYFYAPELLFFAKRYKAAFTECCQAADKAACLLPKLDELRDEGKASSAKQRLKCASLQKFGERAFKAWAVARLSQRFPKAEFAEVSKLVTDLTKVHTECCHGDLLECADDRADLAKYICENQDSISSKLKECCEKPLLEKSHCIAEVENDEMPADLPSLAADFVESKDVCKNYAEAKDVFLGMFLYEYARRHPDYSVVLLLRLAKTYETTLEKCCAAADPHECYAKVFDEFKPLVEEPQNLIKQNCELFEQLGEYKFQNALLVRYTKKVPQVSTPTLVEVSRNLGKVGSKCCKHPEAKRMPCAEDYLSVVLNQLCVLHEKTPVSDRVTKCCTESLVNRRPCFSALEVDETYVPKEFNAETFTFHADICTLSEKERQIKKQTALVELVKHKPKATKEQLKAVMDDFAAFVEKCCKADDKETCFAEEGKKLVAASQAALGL
structure (smiles),measurement,setting,value
"CC[C@H](C)N(C)C(=O)c1nc2ccccc2c(-c2ccccc2)c1CF [(S)-LW223, (S)-(N-sec-Butyl)-3-(fluoromethyl)-N-methyl-4-phenylquinoline-2-carboxamide]",influence of rs6971 polymorphism on binding,TSPO [1],not significantly influenced by the rs6971 polymorphism
same,influence of rs6971 polymorphism on binding,TSPO [1]; listed as S-enantiomer,insensitive to the rs6971 polymorphism
same,fold lower affinity for TSPO compared to (R)-LW223,TSPO [1]; human brain homogenate,7.5 fold
same,fold lower affinity for TSPO relative to PK11195,TSPO [1]; human brain homogenate,3.75 fold
same,Ki,"TSPO [1]; human brain homogenate, all genotypes (HAB, MAB, LAB), n = 18, 1 nM [3H]PK11195, 1.5 h at 4 °C, Kd […], mean ± SD, read-out: TSPO affinity (Ki)",4.5 ± 0.7 nM
"CC[C@@H](C)N(C)C(=O)c1nc2ccccc2c(-c2ccccc2)c1CF [LW223, (R)-N-(sec-Butyl)-3-(fluoromethyl)-N-methyl-4-phenylquinoline-2-carboxamide]",chromatographic logP,[2],4.13
same,K m (membrane partition coefficient),[3],195
same,influence of rs6971 polymorphism on binding,TSPO [4],unaffected by rs6971
same,influence of rs6971 polymorphism on binding,TSPO [4]; listed as (R)-LW223,not significantly influenced by the rs6971 polymorphism
same,fraction unbound,human serum albumin,0.08
same,blood–brain barrier crossing and non-specific binding,[5],effectively crosses the BBB and exhibits low non-specific binding
"CCC(C)N(C)C(=O)c1cc2ccccc2c(-c2ccccc2Cl)n1 (centres unmarked) [PK11195, reference compound]",chromatographic logP,[2],3.98
same,K m (membrane partition coefficient),[3],184
same,fraction unbound,human serum albumin,0.08
